Results on 7 compounds are retold here after patent publication US10004701B2, “Methods and compositions for treating infection” (UNIVERSITY OF ROCHESTER, priority 2012, dated 2018).

The structures appear in SMILES notation. Where a name gives a salt, the structure may show the parent alone. Read-outs that look alike come from different tables or passages of the source.

Holding throughout (assay): AK assay 384-well format, Prestwick library screening
The subject of one assay is E. faecium. Format: cell-based, Enterococcus faecium. Conditions: Enterococcus faecium, 3 h.
The subject of assay [1] is S. aureus strain USA300-0114. Format: cell-based, Staphylococcus aureus. Conditions: for fold induction at 50 µM: Staphylococcus aureus, USA300, 3 h.
A further assay has as its system K. pneumoniae. It is filed as cell-based, Klebsiella pneumoniae. Conditions: Klebsiella pneumoniae, 3 h.
Assay [2] has as its system A. baumannii strain 98-37-09. It is filed as cell-based, Acinetobacter baumannii. Conditions: Acinetobacter baumannii, 983709, 3 h.
In another assay the test system is P. aeruginosa. Format: cell-based, Pseudomonas aeruginosa. Conditions: Pseudomonas aeruginosa, 3 h.
In another assay the test system is E. cloacae. It is filed as cell-based, Enterobacter cloacae. Conditions: Enterobacter cloacae, 3 h.
In another assay the test system is E. coli. It is filed as cell-based, Escherichia coli. Conditions: Escherichia coli, 3 h.

As to `CC(C)(C)NCC(O)c1cc(Cl)c(N)c(Cl)c1` (centres unmarked) [Clenbuterol hydrochloride], the fold induction at 50 µM in the assay on E. faecium (planktonic E. faecium, 50 μM final drug concentration, […], read-out: AK-based Prestwick Library Screening Results, E. faecium (increase in extracellular AK activity)) stood at 0.9; in assay [1] (planktonic S. aureus, 50 μM final drug concentration, […], read-out: AK-based Prestwick Library Screening Results, S. aureus (increase in extracellular AK activity)), 0.7; in the assay on K. pneumoniae (planktonic K. pneumoniae, 50 μM final drug concentration, […], read-out: AK-based Prestwick Library Screening Results, K. pneumoniae (increase in extracellular AK activity)), 0.7; in assay [2] (planktonic A. baumannii, 50 μM final drug concentration, […], read-out: AK-based Prestwick Library Screening Results, A. baumannii (increase in extracellular AK activity)) it was 0.8; with P. aeruginosa (planktonic P. aeruginosa, 50 μM final drug concentration, […], read-out: AK-based Prestwick Library Screening Results, P. aeruginosa (increase in extracellular AK activity)), 0.8; in the assay with E. cloacae (planktonic E. cloacae, 50 μM final drug concentration, […], read-out: AK-based Prestwick Library Screening Results, E. cloacae (increase in extracellular AK activity)), 0.9. In addition, the fold induction at 50 µM in the assay on E. coli (planktonic E. coli, 50 μM final drug concentration, […], read-out: AK-based Prestwick Library Screening Results, E. coli (increase in extracellular AK activity)) is 0.8.

As for `C[N+]12CCC(CC1)C(OC(=O)C(O)(c1ccccc1)c1ccccc1)C2` (centres unmarked) [Clidinium bromide], the fold induction at 50 µM is 0.9 with E. faecium (read-out: AK-based Prestwick Library Screening Results, E. faecium (fold increase in extracellular AK activity)); 0.9 in assay [1] (read-out: AK-based Prestwick Library Screening Results, S. aureus (fold increase in extracellular AK activity)); 0.8 in the assay with K. pneumoniae (read-out: AK-based Prestwick Library Screening Results, K. pneumoniae (fold increase in extracellular AK activity)); 1.1 in assay [2] (read-out: AK-based Prestwick Library Screening Results, A. baumannii (fold increase in extracellular AK activity)); 1.1 in the assay with P. aeruginosa (read-out: AK-based Prestwick Library Screening Results, P. aeruginosa (fold increase in extracellular AK activity)); 1.3 in the assay with E. cloacae (read-out: AK-based Prestwick Library Screening Results, E. cloacae (fold increase in extracellular AK activity)). In addition, the fold induction at 50 µM in the assay on E. coli (read-out: AK-based Prestwick Library Screening Results, E. coli (fold increase in extracellular AK activity)) worked out at 1.

For the compound `CCC[C@@H]1C[C@@H](C(=O)N[C@@H]([C@H]2O[C@H](SC)[C@H](O)[C@@H](O)[C@H]2O)[C@H](C)Cl)N(C)C1` [Clindamycin hydrochloride], the fold induction at 50 µM with E. faecium (planktonic E. faecium, 50 μM final drug concentration, 384-well, cutoff for positive-scoring molecules 3-fold increase, read-out: AK-based Prestwick Library Screening Results: E. faecium (increase in extracellular AK activity)) amounted to 1.2; in assay [1] (planktonic S. aureus, 50 μM final drug concentration, 384-well, cutoff for positive-scoring molecules 3-fold increase, read-out: AK-based Prestwick Library Screening Results: S. aureus (increase in extracellular AK activity)), 8.4; in the assay with K. pneumoniae (planktonic K. pneumoniae, 50 μM final drug concentration, 384-well, cutoff for positive-scoring molecules 3-fold increase, read-out: AK-based Prestwick Library Screening Results: K. pneumoniae (increase in extracellular AK activity)) it was 0.5; in assay [2] (planktonic A. baumannii, 50 μM final drug concentration, 384-well, cutoff for positive-scoring molecules 3-fold increase, read-out: AK-based Prestwick Library Screening Results: A. baumannii (increase in extracellular AK activity)) it was 1; in the assay on P. aeruginosa (planktonic P. aeruginosa, 50 μM final drug concentration, 384-well, cutoff for positive-scoring molecules 3-fold increase, read-out: AK-based Prestwick Library Screening Results: P. aeruginosa (increase in extracellular AK activity)) it was 1.1; in the assay with E. cloacae (planktonic E. cloacae, 50 μM final drug concentration, 384-well, cutoff for positive-scoring molecules 3-fold increase, read-out: AK-based Prestwick Library Screening Results: E. cloacae (increase in extracellular AK activity)), 1.7. For the same compound, the fold induction at 50 µM in the assay with E. coli (planktonic E. coli, 50 μM final drug concentration, 384-well, cutoff for positive-scoring molecules 3-fold increase, read-out: AK-based Prestwick Library Screening Results: E. coli (increase in extracellular AK activity)) was found to be 0.8.

Consider `Oc1c(I)cc(Cl)c2cccnc12` [Clioquinol], for which the fold induction at 50 µM is 0.9 in the assay with E. faecium (50 μM final drug concentration, planktonic, cutoff for positive-scoring molecules 3-fold increase, read-out: AK-based Prestwick Library Screening Results, E. faecium (fold increase in extracellular AK activity)); 0.2 in assay [1] (50 μM final drug concentration, planktonic, cutoff for positive-scoring molecules 3-fold increase, read-out: AK-based Prestwick Library Screening Results, S. aureus (fold increase in extracellular AK activity)); 0.6 with K. pneumoniae (50 μM final drug concentration, planktonic, cutoff for positive-scoring molecules 3-fold increase, read-out: AK-based Prestwick Library Screening Results, K. pneumoniae (fold increase in extracellular AK activity)); 1.1 in assay [2] (50 μM final drug concentration, planktonic, cutoff for positive-scoring molecules 3-fold increase, read-out: AK-based Prestwick Library Screening Results, A. baumannii (fold increase in extracellular AK activity)); 0.4 in the assay with P. aeruginosa (50 μM final drug concentration, planktonic, cutoff for positive-scoring molecules 3-fold increase, read-out: AK-based Prestwick Library Screening Results, P. aeruginosa (fold increase in extracellular AK activity)); 0.5 in the assay with E. cloacae (50 μM final drug concentration, planktonic, cutoff for positive-scoring molecules 3-fold increase, read-out: AK-based Prestwick Library Screening Results, E. cloacae (fold increase in extracellular AK activity)). Further, the fold induction at 50 µM in the assay with E. coli (50 μM final drug concentration, planktonic, cutoff for positive-scoring molecules 3-fold increase, read-out: AK-based Prestwick Library Screening Results, E. coli (fold increase in extracellular AK activity)) came to 0.5.

Take `CCC(=O)O[C@]1(C(=O)CCl)[C@@H](C)C[C@H]2[C@@H]3CCC4=CC(=O)C=C[C@]4(C)[C@@]3(F)[C@@H](O)C[C@@]21C` [Clobetasol propionate]: the fold induction at 50 µM stood at 1 with E. faecium (50 μM final drug concentration, cutoff for positive-scoring molecules 3-fold increase, read-out: AK-based Prestwick Library Screening Results, E. faecium (fold increase in extracellular AK activity)); 0.9 in assay [1] (50 μM final drug concentration, cutoff for positive-scoring molecules 3-fold increase, read-out: AK-based Prestwick Library Screening Results, S. aureus (fold increase in extracellular AK activity)); 1 in the assay on K. pneumoniae (50 μM final drug concentration, cutoff for positive-scoring molecules 3-fold increase, read-out: AK-based Prestwick Library Screening Results, K. pneumoniae (fold increase in extracellular AK activity)); 1.3 in assay [2] (50 μM final drug concentration, cutoff for positive-scoring molecules 3-fold increase, read-out: AK-based Prestwick Library Screening Results, A. baumannii (fold increase in extracellular AK activity)); 1.1 with P. aeruginosa (50 μM final drug concentration, cutoff for positive-scoring molecules 3-fold increase, read-out: AK-based Prestwick Library Screening Results, P. aeruginosa (fold increase in extracellular AK activity)); 1.3 in the assay with E. cloacae (50 μM final drug concentration, cutoff for positive-scoring molecules 3-fold increase, read-out: AK-based Prestwick Library Screening Results, E. cloacae (fold increase in extracellular AK activity)). Moreover, the fold induction at 50 µM in the assay with E. coli (50 μM final drug concentration, cutoff for positive-scoring molecules 3-fold increase, read-out: AK-based Prestwick Library Screening Results, E. coli (fold increase in extracellular AK activity)) was found to be 1.2.

Consider `C[C@@H]1C[C@H]2[C@@H]3C[C@H](F)C4=CC(=O)C=C[C@]4(C)[C@@]3(Cl)[C@@H](O)C[C@]2(C)[C@H]1C(=O)COC(=O)C(C)(C)C` [Clocortolone pivalate], for which the fold induction at 50 µM was found to be 1.1 in the assay on E. faecium (planktonic E. faecium, 50 μM final drug concentration, positive cutoff 3-fold increase, read-out: AK-based Prestwick library screening result, E. faecium (fold increase in extracellular AK activity)); 1.1 in assay [1] (planktonic S. aureus, 50 μM final drug concentration, positive cutoff 3-fold increase, read-out: AK-based Prestwick library screening result, S. aureus (fold increase in extracellular AK activity)); 1 with K. pneumoniae (planktonic K. pneumoniae, 50 μM final drug concentration, positive cutoff 3-fold increase, read-out: AK-based Prestwick library screening result, K. pneumoniae (fold increase in extracellular AK activity)); 1.2 in assay [2] (planktonic A. baumannii, 50 μM final drug concentration, positive cutoff 3-fold increase, read-out: AK-based Prestwick library screening result, A. baumannii (fold increase in extracellular AK activity)); 1 in the assay with P. aeruginosa (planktonic P. aeruginosa, 50 μM final drug concentration, positive cutoff 3-fold increase, read-out: AK-based Prestwick library screening result, P. aeruginosa (fold increase in extracellular AK activity)); 1.6 in the assay with E. cloacae (planktonic E. cloacae, 50 μM final drug concentration, positive cutoff 3-fold increase, read-out: AK-based Prestwick library screening result, E. cloacae (fold increase in extracellular AK activity)). Also, the fold induction at 50 µM in the assay with E. coli (planktonic E. coli, 50 μM final drug concentration, positive cutoff 3-fold increase, read-out: AK-based Prestwick library screening result, E. coli (fold increase in extracellular AK activity)) was 1.

Regarding `CC(C)/N=c1\cc2n(-c3ccc(Cl)cc3)c3ccccc3nc-2cc1Nc1ccc(Cl)cc1` [Clofazimine, clofazimine, reference compound], the fold induction at 50 µM is 1 in the assay with E. faecium (50 μM final drug concentration, planktonic, cutoff for positive 3-fold increase, read-out: AK-based Prestwick Library Screening Results, E. faecium (fold increase in extracellular AK activity)); 4.6 in assay [1] (50 μM final drug concentration, planktonic, cutoff for positive 3-fold increase, read-out: AK-based Prestwick Library Screening Results, S. aureus (fold increase in extracellular AK activity)); 1.1 in the assay with K. pneumoniae (50 μM final drug concentration, planktonic, cutoff for positive 3-fold increase, read-out: AK-based Prestwick Library Screening Results, K. pneumoniae (fold increase in extracellular AK activity)); 5 in assay [2] (50 μM final drug concentration, planktonic, cutoff for positive 3-fold increase, read-out: AK-based Prestwick Library Screening Results, A. baumannii (fold increase in extracellular AK activity)); 1 in the assay with P. aeruginosa (50 μM final drug concentration, planktonic, cutoff for positive 3-fold increase, read-out: AK-based Prestwick Library Screening Results, P. aeruginosa (fold increase in extracellular AK activity)); 1.8 in the assay with E. cloacae (50 μM final drug concentration, planktonic, cutoff for positive 3-fold increase, read-out: AK-based Prestwick Library Screening Results, E. cloacae (fold increase in extracellular AK activity)). For the same compound, in the assay on E. coli (50 μM final drug concentration, planktonic, cutoff for positive 3-fold increase, read-out: AK-based Prestwick Library Screening Results, E. coli (fold increase in extracellular AK activity)), the fold induction at 50 µM came out at 1.2. In addition, in assay [1] (S. aureus USA300-0114, 50 μM, cutoff 3-fold increase in AK), the “activity in AK Prestwick screen” value is recorded as “active”.
